Results from ChEMBL document CHEMBL5393457, “Combined inhibition of amino acid transporters for inhibiting human plasmacytoid dendritic cell activity during autoimmunity” (2022).
Calls of active or inactive are those of the source. No cut-off for these calls is given here.

Columns and labels:
[1] = system: Plasmacytoid dendritic cell; assay: Inhibition of mTORC1/mTORC2 in IL-3 and CpG-A-activated human plasmacytoid dendritic cells at 200 nM assessed as decrease in decrease in ENPP2/IFNA2 expression; format: cell-based
[2] = system: Plasmacytoid dendritic cell; assay: Inhibition of mTORC1/mTORC2 in CpG-A and IL-3-activated human plasmacytoid dendritic cells at 200 ng/mL assessed as decrease in SLC7A5 expression; format: cell-based
[3] = system: Plasmacytoid dendritic cell; assay: Inhibition of mTORC1/mTORC2 in TLR9-activated human plasmacytoid dendritic cells at 1 uM assessed as decrease in CpG-A stimulated SLC7A11 expression; format: cell-based
[4] = system: Plasmacytoid dendritic cell; assay: Inhibition of mTORC1/mTORC2 in IL-3 and CpG-A-activated human plasmacytoid dendritic cells at 200 nM assessed as decrease in decrease in MYO1E/IFNA2 expression; format: cell-based
[5] = system: Plasmacytoid dendritic cell; assay: Inhibition of mTORC1/mTORC2 in CpG-A and IL-3-activated human plasmacytoid dendritic cells at 200 ng/mL assessed as decrease in TNF production; format: cell-based
[6] = system: Plasmacytoid dendritic cell; assay: Inhibition of mTORC1/mTORC2 in CpG-A and IL-3-activated human plasmacytoid dendritic cells at 200 ng/mL assessed as decrease in IFN-alpha production; format: cell-based
[7] = system: Plasmacytoid dendritic cell; assay: Inhibition of mTORC1/mTORC2 in CpG-A and IL-3-activated human plasmacytoid dendritic cells at 200 ng/mL assessed as decrease in SLC3A2 expression; format: cell-based
[8] = biological target: Glyceraldehyde-3-phosphate dehydrogenase (Homo sapiens) (UniProt P04406); assay: Inhibition of GAPDH in CpG-A-stimulated human plasmacytoid dendritic cells at 10 uM assessed as reduction in secreted lactate levels; format: cell-based; conditions: Plasmacytoid dendritic cell
Chain of Glyceraldehyde-3-phosphate dehydrogenase (Homo sapiens) (P04406 2-335 limits assumed): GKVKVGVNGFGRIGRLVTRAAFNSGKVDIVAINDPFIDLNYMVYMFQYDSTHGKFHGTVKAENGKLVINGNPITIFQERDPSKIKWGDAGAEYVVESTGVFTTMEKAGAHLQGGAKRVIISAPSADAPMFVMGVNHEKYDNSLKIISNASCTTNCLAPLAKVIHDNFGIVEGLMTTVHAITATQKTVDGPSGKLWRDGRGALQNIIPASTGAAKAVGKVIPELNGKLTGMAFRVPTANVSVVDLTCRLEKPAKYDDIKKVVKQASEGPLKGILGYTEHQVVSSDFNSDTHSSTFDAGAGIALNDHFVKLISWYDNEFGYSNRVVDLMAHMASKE

[9] = biological target: Glyceraldehyde-3-phosphate dehydrogenase (Homo sapiens) (UniProt P04406); assay: Inhibition of GAPDH in CpG-A-stimulated human plasmacytoid dendritic cells at 10 uM assessed as reduction in IFNa-alpha production; format: cell-based; conditions: Plasmacytoid dendritic cell
[10] = biological target: Glyceraldehyde-3-phosphate dehydrogenase (Homo sapiens) (UniProt P04406); assay: Inhibition of GAPDH in CpG-A-stimulated human plasmacytoid dendritic cells at 10 uM assessed as reduction in TNF production in presence of 1 uM oligomycin; format: cell-based; conditions: Plasmacytoid dendritic cell
[11] = biological target: Glyceraldehyde-3-phosphate dehydrogenase (Homo sapiens) (UniProt P04406); assay: Inhibition of GAPDH in CpG-A-stimulated human plasmacytoid dendritic cells at 10 uM assessed as reduction in IFN-alpha production in presence of 1 uM oligomycin; format: cell-based; conditions: Plasmacytoid dendritic cell
[12] = biological target: Glyceraldehyde-3-phosphate dehydrogenase (Homo sapiens) (UniProt P04406); assay: Inhibition of GAPDH in CpG-A-stimulated human plasmacytoid dendritic cells at 10 uM assessed as reduction in TNF production; format: cell-based; conditions: Plasmacytoid dendritic cell
[13] = biological target: Glyceraldehyde-3-phosphate dehydrogenase (Homo sapiens) (UniProt P04406); assay: Inhibition of GAPDH in CpG-A-stimulated human plasmacytoid dendritic cells at 10 uM assessed as reduction in overall protein synthesis; format: cell-based; conditions: Plasmacytoid dendritic cell
[14] = biological target: Large neutral amino acids transporter small subunit 1 (Homo sapiens) (UniProt Q01650); assay: Inhibition of human LAT1 at 100 uM relative to control
Chain of Large neutral amino acids transporter small subunit 1 (Homo sapiens) (Q01650 whole entry): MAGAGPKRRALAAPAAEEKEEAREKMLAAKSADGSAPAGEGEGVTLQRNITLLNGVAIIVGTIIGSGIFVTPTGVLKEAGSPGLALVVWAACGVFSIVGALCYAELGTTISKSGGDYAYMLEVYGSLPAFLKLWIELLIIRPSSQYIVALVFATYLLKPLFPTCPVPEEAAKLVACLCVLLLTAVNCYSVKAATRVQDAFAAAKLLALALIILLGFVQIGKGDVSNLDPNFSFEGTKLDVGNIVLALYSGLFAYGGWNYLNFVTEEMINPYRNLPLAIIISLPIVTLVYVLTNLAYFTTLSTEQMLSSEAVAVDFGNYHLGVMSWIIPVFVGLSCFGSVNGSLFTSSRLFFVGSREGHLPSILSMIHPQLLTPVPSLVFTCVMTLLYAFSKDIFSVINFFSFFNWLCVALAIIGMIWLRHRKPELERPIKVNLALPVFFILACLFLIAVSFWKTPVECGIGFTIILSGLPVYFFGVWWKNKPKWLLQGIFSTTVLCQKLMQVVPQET

[15] = biological target: T1, Cystine/glutamate transporter (Homo sapiens) (UniProt Q9UPY5); assay: Inhibition of XCT in CpG-A-activated human plasmacytoid dendritic cells at 5 uM assessed as decrease in kynurenine uptake; format: cell-based; conditions: Plasmacytoid dendritic cell
T1 sequence (whole entry): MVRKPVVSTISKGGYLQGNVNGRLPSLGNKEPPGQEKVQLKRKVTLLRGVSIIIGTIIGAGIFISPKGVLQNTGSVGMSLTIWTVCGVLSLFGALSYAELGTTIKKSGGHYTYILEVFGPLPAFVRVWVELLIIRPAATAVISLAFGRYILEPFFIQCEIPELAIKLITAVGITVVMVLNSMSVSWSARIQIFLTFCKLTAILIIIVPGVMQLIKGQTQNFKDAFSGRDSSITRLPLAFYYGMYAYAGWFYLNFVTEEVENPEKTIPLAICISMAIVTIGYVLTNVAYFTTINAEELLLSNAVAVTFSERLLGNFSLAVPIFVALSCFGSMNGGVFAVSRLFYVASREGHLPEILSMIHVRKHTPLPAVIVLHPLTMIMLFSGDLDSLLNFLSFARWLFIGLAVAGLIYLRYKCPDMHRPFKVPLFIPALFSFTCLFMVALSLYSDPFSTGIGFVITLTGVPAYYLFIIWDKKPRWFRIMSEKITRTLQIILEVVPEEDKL

[16] = biological target: T1, Cystine/glutamate transporter (Homo sapiens); assay: Inhibition of XCT in IL-3 CpG-A-activated human plasma at 10 uM assessed as decrease in pDC activation
[17] = biological target: T1, Cystine/glutamate transporter (Homo sapiens); assay: Inhibition of XCT in CpG-A-activated human plasmacytoid dendritic cells at 1 uM assessed as decrease in TNF production; format: cell-based; conditions: Plasmacytoid dendritic cell
[18] = biological target: T1, Cystine/glutamate transporter (Homo sapiens); assay: Inhibition of XCT in CpG-A-activated human plasmacytoid dendritic cells at 5 uM assessed as decrease in S6 phosphorylation; format: cell-based; conditions: Plasmacytoid dendritic cell
[19] = biological target: T1, Cystine/glutamate transporter (Homo sapiens); assay: Inhibition of XCT in CpG-A-activated human plasmacytoid dendritic cells at 5 uM assessed as decrease in IFN-alpha production; format: cell-based; conditions: Plasmacytoid dendritic cell
[20] = biological target: T1, Cystine/glutamate transporter (Homo sapiens); assay: Inhibition of XCT in CpG-A-activated human plasmacytoid dendritic cells at 5 uM assessed as decrease in TNF production; format: cell-based; conditions: Plasmacytoid dendritic cell
[21] = biological target: T1, Cystine/glutamate transporter (Homo sapiens); assay: Inhibition of XCT in CpG-A-activated human plasmacytoid dendritic cells at 1 uM assessed as decrease in IFN-alpha production; format: cell-based; conditions: Plasmacytoid dendritic cell
[22] = biological target: T1, Cystine/glutamate transporter (Homo sapiens); assay: Inhibition of XCT in CpG-A-activated human plasmacytoid dendritic cells at 10 uM assessed as decrease in MYO1E expression; format: cell-based; conditions: Plasmacytoid dendritic cell
[23] = biological target: T1, Cystine/glutamate transporter (Homo sapiens); assay: Inhibition of XCT in CpG-A-activated human plasmacytoid dendritic cells at 10 uM assessed as decrease in ENPP2 expression; format: cell-based; conditions: Plasmacytoid dendritic cell
[24] = biological target: T1, Cystine/glutamate transporter (Homo sapiens); assay: Inhibition of XCT in CpG-A-activated human plasmacytoid dendritic cells at 25 to 100 uM assessed as decrease in TNF production in presence of 100 uM sulfasalazine; format: cell-based; conditions: Plasmacytoid dendritic cell, dose 25-100 µM

CCC(=O)N1CCN(c2ccc(-n3c(=O)ccc4cnc5ccc(-c6cnc7ccccc7c6)cc5c43)cc2C(F)(F)F)CC1
inhibition [1]: Active
inhibition [2]: Active
inhibition [3]: Active
inhibition [4]: Active
inhibition [5]: Active
inhibition [6]: Active
inhibition [7]: Active

CC(C)[C@H]1CC[C@@]2(CO2)[C@H]2C(=O)OCC(C(=O)O)=C[C@H]12
inhibition [8]: Active
inhibition [9]: Active
inhibition [10]: Active
inhibition [11]: Active
inhibition [12]: Active
inhibition [13]: Active

N#Cc1cc(Br)ccc1/N=c1\ssnc1Cl
inhibition [14]: > 90%

CCOc1ccccc1-n1c(C(C)N2CCN(C(=O)COc3ccc(Cl)cc3)CC2)nc2ccccc2c1=O (configuration not stated)
inhibition [15]: Active
inhibition [16]: Active
inhibition [17]: Active
inhibition [18]: Active
inhibition [19]: Active
inhibition [20]: Active
inhibition [21]: Active
inhibition [22]: Active
inhibition [23]: Active

FC(F)(F)Oc1ccc(/N=c2\ssnc2Cl)cc1
inhibition [14]: > 90%

CCS(=O)(=O)N1CC(CC#N)(n2cc(-c3ncnc4[nH]ccc34)cn2)C1
inhibition [24]: Active

N#Cc1ccc(Cl)cc1/N=c1\ssnc1Cl
inhibition [14]: > 90%

Fc1ccc(Cl)cc1/N=c1\ssnc1Cl
inhibition [14]: > 90%
